The values that follow come from patent US20020026053A1, “Novel 3-(substituted) -2- indolinones compounds and use thereof as inhibitors of protein kinase activity” (priority 1997, published 2002).

One experiment has as its system FLK-1 receptor. Briefly: FLK-1 Assay (cellular/catalytic ELISA, VEGF-stimulated phosphotyrosine). Also on record: concentration or dose not given beside the values. The experiment is classed as cell-based. The protocol:
(§1) The cellular/catalytic assays described herein are performed in an ELISA format. The general procedure is as follows: a compound is introduced to cells expressing the test kinase, either naturally or recombinantly, for a selected period of time after which, if the test kinase is a receptor, a ligand known to activate the receptor is added. The cells are lysed and the lysate is transferred to the wells of an ELISA plate previously coated with a specific antibody recognizing the substrate of the enzymatic phosphorylation reaction. Non-substrate components of the cell lysate are washed away and the amount of phosphorylation on the substrate is detected with an antibody specifically recognizing phosphotyrosine compared with control cells that were not contacted with a test compound.
An ELISA assay is conducted to measure the kinase activity of the FLK-1 receptor and more specifically, the inhibition or activation of TK activity on the FLK-1 receptor. Specifically, the following assay can be conducted to measure kinase activity of the FLK-1 receptor in cells genetically engineered to express Flk-1.
a. Corning 96-well ELISA plates (Corning Catalog No. 25805-96);
b. Cappel goat anti-rabbit IgG (catalog no. 55641);
c. PBS (Gibco Catalog No. 450-1300EB);
d. TBSW Buffer (50 mM Tris (pH 7.2), 150 mM NaCl and 0.1% Tween-20);
e. Ethanolamine stock (10% ethanolamine (pH 7.0), stored at 4° C.);
f. HNTG buffer (20 mM HEPES buffer (pH 7.5), 150 mM NaCl, 0.2% Triton X-100, and 10% glycerol);
g. EDTA (0.5 M (pH 7.0) as a 100× stock);
h. Sodium orthovanadate (0.5 M as a 100× stock);
i. Sodium pyrophosphate (0.2 M as a 100× stock);
j. NUNC 96 well V bottom polypropylene plates (Applied Scientific Catalog No. AS-72092);
k. NIH3T3 C7#3 Cells (FLK-1 expressing cells);
l. DMEM with 1× high glucose L-Glutamine (catalog No. 11965-050);
n. L-glutamine, Gibco (catalog no. 25030-016);
o. VEGF, PeproTech, Inc. (catalog no. 100-20)(kept as 1 μg/100 μl stock in Milli-Q dH2O and stored at −20° C.;
p. Affinity purified anti-FLK-1 antiserum;
q. UB40 monoclonal antibody specific for phosphotyrosine (see, Fendley, et al., 1990, Cancer Research 50:1550-1558);
r. EIA grade Goat anti-mouse IgG-POD (BioRad catalog no. 172-1011);
s. 2,2-azino-bis(3-ethylbenz-thiazoline-6-sulfonic acid (ABTS) solution (100 mM citric acid (anhydrous), 250 mM Na2HPO4 (pH 4.0), 0.5 mg/ml ABTS (Sigma catalog no. A-1888)), solution should be stored in dark at 4° C. until ready for use;
t. H2O2 (30% solution) (Fisher catalog no. H325);
u. ABTS/ H2O2 (15 ml ABTS solution, 2 μl H2O2) prepared 5 minutes before use and left at room temperature;
v. 0.2 M HCl stock in H2O;
w. dimethylsulfoxide (100%) (Sigma Catalog No. D-8418); and
y. Trypsin-EDTA (Gibco BRL Catalog No. 25200-049).
1. Coat Corning 96-well ELISA plates with 1.0 μg per well Cappel Anti-rabbit IgG antibody in 0.1M Na2CO3 pH 9.6. Bring final volume to 150 μl per well. Coat plates overnight at 4° C. Plates can be kept up to two weeks when stored at 4° C.
2. Grow cells in Growth media (DMEM, supplemented with 2.0 mM L-Glutamine, 10% FBS) in suitable culture dishes until confluent at 37° C., 5% CO2.
3. Harvest cells by trypsinization and seed in Corning 25850 polystyrene 96-well round bottom cell plates, 25,000 cells/well in 200 μl of growth media.
4. Grow cells at least one day at 37° C., 5% CO2.
5. Wash cells with D-PBS 1×.
6. Add 200 μl/well of starvation media (DMEM, 2.0 mM 1-Glutamine, 0.1% FBS). Incubate overnight at 37° C., 5% CO2.
7. Dilute Compounds 1:20 in polypropylene 96 well plates using starvation media. Dilute dimethylsulfoxide 1:20 for use in control wells.
8. Remove starvation media from 96 well cell culture plates and add 162 μl of fresh starvation media to each well.
9. Add 18 μl of 1:20 diluted compound dilution (from step 7) to each well plus the 1:20 dimethylsulfoxide dilution to the control wells (+/− VEGF), for a final dilution of 1:200 after cell stimulation. Final dimethylsulfoxide is 0.5%. Incubate the plate at 37° C., 5% CO2 for two hours.
10. […]
For orientation: In an ELISA, binding on a coated surface is turned into a signal by an enzyme label.

Another experiment has as its system PDGF-R. Briefly: PDGF-R Assay (cellular ELISA, U1242 cells). Also on record: concentration or dose not given beside the values. The format is cell-based. The protocol: as §1
All cell culture media, glutamine, and fetal bovine serum can be purchased from Gibco Life Technologies (Grand Island, N.Y.) unless otherwise specified. All cells are grown in a humid atmosphere of 90-95% air and 5-10% CO2 at 37° C. All cell lines are routinely subcultured twice a week and are negative for mycoplasma as determined by the Mycotect method (Gibco).
For ELISA assays, cells (U1242, obtained from Joseph Schlessinger, NYU) are grown to 80-90% confluency in growth medium (MEM with 10% FBS, NEAA, 1 mM NaPyr and 2 mM GLN) and seeded in 96-well tissue culture plates in 0.5% serum at 25,000 to 30,000 cells per well. After overnight incubation in 0.5% serum-containing medium, cells are changed to serum-free medium and treated with test compound for 2 hr in a 5% CO2, 37° C. incubator. Cells are then stimulated with ligand for 5-10 minute followed by lysis with HNTG (20 mM Hepes, 150 mM NaCl, 10% glycerol, 5 mM EDTA, 5 mM Na3VO4, 0.2% Triton X-100, and 2 mM NaPyr). Cell lysates (0.5 mg/well in PBS) are transferred to ELISA plates previously coated with receptor-specific antibody and which had been blocked with 5% milk in TBST (50 mM Tris-HCl pH 7.2, 150 mM NaCl and 0.1% Triton X-100) at room temperature for 30 min. Lysates are incubated with shaking for 1 hour at room temperature. The plates are washed with TBST four times and then incubated with polyclonal anti-phosphotyrosine antibody at room temperature for 30 minutes. Excess anti-phosphotyrosine antibody is removed by rinsing the plate with TBST four times. Goat anti-rabbit IgG antibody is added to the ELISA plate for 30 min at room temperature followed by rinsing with TBST four more times. ABTS (100 mM citric acid, 250 mM Na2HPO4 and 0.5 mg/mL 2,2′-azino-bis (3-ethylbenzthiazoline-6-sulfonic acid)) plus H2O2 ([…] 30% H2O2 to 10 ml ABTS) is added to the ELISA plates to start color development. Absorbance at 410 nm with a reference wavelength of 630 nm is recorded about 15 to 30 min after ABTS addition.

Each structure is given as a SMILES string. Values joined by “and” are separate entries in the source; they are usually repeats but may differ in a detail not shown here. Equal values may be shown once.

Turning to `CCc1cc(CC)c(C=C2C(=O)Nc3c(Br)cc(Br)c(C)c32)[nH]1` [10727/H03], the “Flk Kinase % Inhibition (P.110)” value in the experiment on FLK-1 receptor was found to be 4.3%. The “PDGF Kinase % Inhibition (P.119)” value in the experiment with PDGF-R was −20.5%.

For `Cc1c(Br)cc(Br)c2c1C(=Cc1cc(Cl)cc(Br)c1O)C(=O)N2` [10727/H04], in the experiment on FLK-1 receptor, the “Flk Kinase % Inhibition (P.110)” value amounted to 1.8%. The “PDGF Kinase % Inhibition (P.119)” value in the experiment on PDGF-R stood at 13.7%.

Turning to `Cc1c(Br)cc(Br)c2c1C(=Cc1ccccc1Sc1ccc(Cl)cc1)C(=O)N2` [10727/H05], the “Flk Kinase % Inhibition (P.110)” value in the experiment with FLK-1 receptor was found to be 5.5%. Further, the “PDGF Kinase % Inhibition (P.119)” value in the experiment on PDGF-R was −28.5%.

Turning to `Cc1c(Br)cc(Br)c2c1C(=Cc1cc3c(cc1Cl)OCO3)C(=O)N2` [10727/H06], in the experiment with FLK-1 receptor, the “Flk Kinase % Inhibition (P.110)” value was −4.4%. In addition, the “PDGF Kinase % Inhibition (P.119)” value in the experiment with PDGF-R is reported as −40.8%.

Regarding `Cc1c(Br)cc(Br)c2c1C(=Cc1coc3ccccc3c1=O)C(=O)N2` [10727/H07], the “Flk Kinase % Inhibition (P.110)” value in the experiment with FLK-1 receptor was −9.7%. Besides, the “PDGF Kinase % Inhibition (P.119)” value in the experiment on PDGF-R is listed as −37.2%.

Regarding `Cc1c(Br)cc(Br)c2c1C(=Cc1cccc(C#N)c1)C(=O)N2` [10727/H08], in the experiment on FLK-1 receptor, the “Flk Kinase % Inhibition (P.110)” value came out at 2.9%. Also, the “PDGF Kinase % Inhibition (P.119)” value in the experiment on PDGF-R was −27.0%.

For the compound `Cc1c(Br)cc(Br)c2c1C(=Cc1ccc(C#N)cc1)C(=O)N2` [10727/H09], the “Flk Kinase % Inhibition (P.110)” value with FLK-1 receptor was −1.4%. The “PDGF Kinase % Inhibition (P.119)” value in the experiment with PDGF-R is recorded as −11.7%.

For the compound `Cc1c(Br)cc(Br)c2c1C(=Cc1cc(O)ccc1O)C(=O)N2` [10727/H10], the “Flk Kinase % Inhibition (P.110)” value in the experiment on FLK-1 receptor is given as −8.3%. Also, in the experiment on PDGF-R, the “PDGF Kinase % Inhibition (P.119)” value is on record as 10.1%.

For `COc1cccc(C=C2C(=O)Nc3c(Br)cc(Br)c(C)c32)c1OC` [10727/H11], in the experiment with FLK-1 receptor, the “Flk Kinase % Inhibition (P.110)” value is listed as 3.7%. For the same compound, the “PDGF Kinase % Inhibition (P.119)” value with PDGF-R stood at 2.8%.

As for `COc1ccc(OC)c(C=C2C(=O)Nc3c(Br)cc(Br)c(C)c32)c1` [10728/H02], the “Flk Kinase % Inhibition (P.110)” value in the experiment on FLK-1 receptor is −13.3%. Moreover, in the experiment with PDGF-R, the “PDGF Kinase % Inhibition (P.119)” value was −9.3%.

Regarding `COc1cccc(OC)c1C=C1C(=O)Nc2c(Br)cc(Br)c(C)c21` [10728/H03], in the experiment on FLK-1 receptor, the “Flk Kinase % Inhibition (P.110)” value was −2.1%. For the same compound, the “PDGF Kinase % Inhibition (P.119)” value with PDGF-R is on record as −10.6%.

`COc1cc(C=C2C(=O)Nc3c(Br)cc(Br)c(C)c32)cc(OC)c1` [10728/H04]: in the experiment on FLK-1 receptor, the “Flk Kinase % Inhibition (P.110)” value is listed as −4.3%. Moreover, the “PDGF Kinase % Inhibition (P.119)” value with PDGF-R was −5.7%.

Regarding `COc1cc(N(C)C)ccc1C=C1C(=O)Nc2c(Br)cc(Br)c(C)c21` [10728/H05], the “Flk Kinase % Inhibition (P.110)” value with FLK-1 receptor was 1.1% and −4.4%. Besides, the “PDGF Kinase % Inhibition (P.119)” value in the experiment with PDGF-R was −10.6% and −5.3%.

For the compound `Cc1c(Br)cc(Br)c2c1C(=Cc1ccc3c(c1)Cc1ccccc1-3)C(=O)N2` [10728/H06], the “Flk Kinase % Inhibition (P.110)” value in the experiment on FLK-1 receptor is 7.9%. The “PDGF Kinase % Inhibition (P.119)” value in the experiment on PDGF-R was −25.7%.

For `Cc1c(Br)cc(Br)c2c1C(=Cc1cccc(C(F)(F)F)c1F)C(=O)N2` [10728/H07], the “Flk Kinase % Inhibition (P.110)” value in the experiment with FLK-1 receptor is given as 1.5%. Also, in the experiment with PDGF-R, the “PDGF Kinase % Inhibition (P.119)” value is given as −1.7%.

As to `Cc1c(Br)cc(Br)c2c1C(=Cc1c(F)cccc1C(F)(F)F)C(=O)N2` [10728/H09], the “Flk Kinase % Inhibition (P.110)” value in the experiment with FLK-1 receptor was found to be 0.7%. Further, in the experiment with PDGF-R, the “PDGF Kinase % Inhibition (P.119)” value is reported as −6.2%.
